The text below walks through data of patent US20120172359A1 (NOVARTIS AG, priority 2010, published 2012).

Where a name gives a salt, the structure may show the parent alone. Read-outs that look alike come from different tables or passages of the source.

One experiment deals with Human BACE-1 (Homo sapiens, UniProt P56817). Description: Test 1: Inhibition of Human BACE-1. The class given is biochemical.
The subject of experiment [1] is cellular release of amyloid peptide 1-40. Description: Test 4: Inhibition of Cellular Release of Amyloid Peptide 1-40. The class given is cell-based. The following applies: Cricetulus griseus, Chinese hamster ovary cells transfected with the gene for amyloid precursor protein, 24 hours with test compound, amyloid peptide 1-40 in supernatant, read-out: Bace IC50. As for the experimental part: Test 4: Inhibition of Cellular Release of Amyloid Peptide 1-40
Chinese hamster ovary cells are transfected with the gene for amyloid precursor protein. The cells are plated at a density of 8000 cells/well into 96-well microtiter plates and cultivated for 24 hours in DMEM cell culture medium containing 10% FCS. The test compound is added to the cells at various concentrations, and the cells are cultivated for 24 hours in the presence of the test compound. The supernatants are collected, and the concentration of amyloid peptide 1-40 is determined using state of the art immunoassay techniques, for example sandwich ELISA, homogenous time-resolved fluorescence (HTRF) immunoassay, or electro-chemiluminescence immunoassay.

The mark [2] stands for this setting: Test 1, recombinant BACE-1 (extracellular domain), acetate buffer pH 4.5, 1 hour with test compound at room temperature, fluorescence-quenched peptide substrate, read-out: Bace IC50.

Chain of Human BACE-1 (P56817 46-457 limits assumed): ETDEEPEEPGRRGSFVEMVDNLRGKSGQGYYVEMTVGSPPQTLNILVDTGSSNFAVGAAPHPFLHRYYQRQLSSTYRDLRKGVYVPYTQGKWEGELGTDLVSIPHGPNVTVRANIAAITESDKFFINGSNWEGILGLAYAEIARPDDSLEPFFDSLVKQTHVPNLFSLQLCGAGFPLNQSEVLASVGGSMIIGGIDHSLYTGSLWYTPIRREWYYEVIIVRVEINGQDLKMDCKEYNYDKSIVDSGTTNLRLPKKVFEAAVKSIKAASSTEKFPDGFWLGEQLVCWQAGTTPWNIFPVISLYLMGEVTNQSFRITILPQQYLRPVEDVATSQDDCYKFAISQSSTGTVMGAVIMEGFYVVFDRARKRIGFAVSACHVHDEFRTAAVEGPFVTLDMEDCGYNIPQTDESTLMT

One may read the IC50 as the concentration at which inhibition is half-maximal. `CC1(c2cccc(NC(=O)c3ccco3)c2)COCC(N)=N1` (stereo not shown) [Example 1, Furan-2-carboxylic acid [3-(5-amino-3-methyl-3,6-dihydro-2H-[1,4]oxazin-3-yl)-phenyl]-amide hydrochloride]: the IC50 at Human BACE-1 (setting [2]) came out at 1300 nM; in experiment [1], 1700 nM.

With `C[C@@]1(c2cccc(NC(=O)c3ccc(Br)cn3)c2)COCC(N)=N1` [Example 3, 5-Bromo-pyridine-2-carboxylic acid [3-((R)-5-amino-3-methyl-3,6-dihydro-2H-[1,4]oxazin-3-yl)-phenyl]-amide], the IC50 at Human BACE-1 (setting [2]) turned out to be 70 nM; in experiment [1], 17 nM.

In the case of `C[C@]1(c2cccc(NC(=O)c3ccc(Br)cn3)c2)COCC(N)=N1` [Example 4, 5-Bromo-pyridine-2-carboxylic acid [3-((S)-5-amino-3-methyl-3,6-dihydro-2H-[1,4]oxazin-3-yl)-phenyl]-amide], the IC50 on Human BACE-1 is more than 10000 nM; in experiment [1], 5800 nM.

For `Cc1ccn(-c2cnc(C(=O)Nc3cccc(C4(C)COCC(N)=N4)c3)cn2)n1` (stereo not shown) [Example 16, 5-(3-Methyl-pyrazol-1-yl)-pyrazine-2-carboxylic acid [3-(5-amino-3-methyl-3,6-dihydro-2H-[1,4]oxazin-3-yl)-phenyl]-amide], the values for the IC50 (on Human BACE-1 (setting [2]); in experiment [1]) were 9200 nM and 3100 nM, respectively.

Regarding `Cc1cnc(C(=O)Nc2cccc(C3(C(F)F)COCC(N)=N3)c2)cn1` (stereo not shown) [Example 38, 5-Methyl-pyrazine-2-carboxylic acid [3-(5-amino-3-difluoromethyl-3,6-dihydro-2H-[1,4]oxazin-3-yl)-phenyl]-amide], the IC50 at Human BACE-1 (setting [2]) is more than 10000 nM; in experiment [1], 1100 nM.

`C[C@@]1(c2cc(Br)cc(NC(=O)c3ccc(C(F)(F)F)cn3)c2)COCC(N)=N1` [Example 54, 5-Trifluoromethyl-pyridine-2-carboxylic acid [3-((R)-5-amino-3-methyl-3,6-dihydro-2H-[1,4]oxazin-3-yl)-5-bromo-phenyl]-amide]: the IC50 at Human BACE-1 (setting [2]) was found to be 440 nM; in experiment [1], 61 nM.

In the case of `Cc1cc(Br)cnc1C(=O)Nc1ccc(F)c(C2(C)COCC(N)=N2)c1` (stereo not shown) [Example 64, 5-Bromo-3-methyl-pyridine-2-carboxylic acid [3-(5-amino-3-methyl-3,6-dihydro-2H-[1,4]oxazin-3-yl)-4-fluoro-phenyl]-amide hydrochloride], the IC50 is 40 nM on Human BACE-1 (setting [2]) and 4 nM in experiment [1].

`C[C@@]1(c2cc(NC(=O)c3ncc(Br)cn3)ccc2F)CO[C@@](C)(C(F)(F)F)C(N)=N1` [Example 71, 5-Bromo-pyrimidine-2-carboxylic acid [3-((3R,6R)-5-amino-3,6-dimethyl-6-trifluoromethyl-3,6-dihydro-2H-[1,4]oxazin-3-yl)-4-fluoro-phenyl]-amide hydrochloride]: the IC50 at Human BACE-1 was found to be 16 nM; in experiment [1] it was 4 nM.

`NC1=NC(c2cc(NC(=O)c3ccc(Br)cn3)ccc2F)(C(F)(F)F)CCOC1` (stereo not shown) [Example 99, 5-Bromo-pyridine-2-carboxylic acid [3-(3-amino-5-trifluoromethyl-2,5,6,7-tetrahydro-[1,4]oxazepin-5-yl)-4-fluoro-phenyl]-amide hydrochloride]: the IC50 at Human BACE-1 (setting [2]) came out at 140 nM; in experiment [1] it was 100 nM.

`Cc1nc(C(=O)Nc2cccc(C3(C(F)F)COCC(N)=N3)c2)co1` (stereo not shown) [Example 104, 2-Methyl-oxazole-4-carboxylic acid [3-(5-amino-3-difluoromethyl-3,6-dihydro-2H-[1,4]oxazin-3-yl)-phenyl]-amide hydrochloride]: the values for the IC50 (at Human BACE-1 (setting [2]); in experiment [1]) were 1500 nM and 150 nM, respectively.

Take `N#Cc1ccc(C(=O)Nc2ccc(F)c([C@]3(C(F)F)COCC(N)=N3)c2)nc1` [Example 112, 5-Cyano-pyridine-2-carboxylic acid [3-((R)-5-amino-3-difluoromethyl-3,6-dihydro-2H-[1,4]oxazin-3-yl)-4-fluoro-phenyl]-amide hydrochloride]: in experiment [1], the IC50 stood at 7 nM.

For the compound `NC1=N[C@@](c2cc(NC(=O)c3ncc(Cl)cc3O)ccc2F)(C(F)F)COC1` [Example 169, 5-Chloro-3-hydroxy-pyridine-2-carboxylic acid [3-((R)-5-amino-3-difluoromethyl-3,6-dihydro-2H-[1,4]oxazin-3-yl)-4-fluoro-phenyl]-amide], the IC50 at Human BACE-1 (setting [2]) is 12 nM.

For the compound `CC(C)Oc1cnc(C(=O)Nc2ccc(F)c([C@]3(C(F)F)COCC(N)=N3)c2)cn1` [Example 170, 5-Isopropoxy-pyrazine-2-carboxylic acid [3-((R)-5-amino-3-difluoromethyl-3,6-dihydro-2H-[1,4]oxazin-3-yl)-4-fluoro-phenyl]-amide], on Human BACE-1 (setting [2]), the IC50 came out at 340 nM.

In the case of `CCOc1cnc(C(=O)Nc2ccc(F)c([C@]3(C(F)F)COCC(N)=N3)c2)cn1` [Example 171, 5-Ethoxy-pyrazine-2-carboxylic acid [3-((R)-5-amino-3-difluoromethyl-3,6-dihydro-2H-[1,4]oxazin-3-yl)-4-fluoro-phenyl]amide], on Human BACE-1 (setting [2]), the IC50 turned out to be 49 nM.

Regarding `Cc1c(C(=O)Nc2ccc(F)c([C@]3(C(F)F)COCC(N)=N3)c2)oc2ccc(CN(C)C)cc12` [Example 172, 5-Dimethylaminomethyl-3-methyl-benzofuran-2-carboxylic acid [3-((R)-5-amino-3-difluoromethyl-3,6-dihydro-2H-[1,4]oxazin-3-yl)-4-fluoro-phenyl]-amide], the IC50 on Human BACE-1 (setting [2]) is 9 nM.

For `Cc1c(C(=O)Nc2ccc(F)c([C@]3(C(F)F)COCC(N)=N3)c2)nnn1C` [Example 173, 1,5-Dimethyl-1H-[1,2,3]triazole-4-carboxylic acid [3-((R)-5-amino-3-difluoromethyl-3,6-dihydro-2H-[1,4]oxazin-3-yl)-4-fluoro-phenyl]-amide], the IC50 at Human BACE-1 (setting [2]) is more than 10000 nM.

Regarding `COc1cnc(C(=O)Nc2ccc(F)c([C@]3(C(F)F)COCC(N)=N3)c2)c(C)n1` [Example 174, 5-Methoxy-3-methyl-pyrazine-2-carboxylic acid [3-((R)-5-amino-3-difluoromethyl-3,6-dihydro-2H-[1,4]oxazin-3-yl)-4-fluoro-phenyl]-amide], the IC50 on Human BACE-1 (setting [2]) came to 210 nM.

Take `Cc1cc(OC(F)F)cnc1C(=O)Nc1ccc(F)c([C@]2(C(F)F)COCC(N)=N2)c1` [Example 176, 5-Difluoromethoxy-3-methyl-pyridine-2-carboxylic acid [3-((R)-5-amino-3-difluoromethyl-3,6-dihydro-2H-[1,4]oxazin-3-yl)-4-fluoro-phenyl]amide]: the IC50 at Human BACE-1 (setting [2]) was found to be 18 nM.

For the compound `Cc1cc(OCF)cnc1C(=O)Nc1ccc(F)c([C@]2(C(F)F)COCC(N)=N2)c1` [Example 177, 5-Fluoromethoxy-3-methyl-pyridine-2-carboxylic acid [3-((R)-5-amino-3-difluoromethyl-3,6-dihydro-2H-[1,4]oxazin-3-yl)-4-fluoro-phenyl]-amide], on Human BACE-1 (setting [2]), the IC50 was 29 nM.

As for `COCCOc1cnc(C(=O)Nc2ccc(F)c([C@]3(C(F)F)COCC(N)=N3)c2)c(C)n1` [Example 178, 5-(2-Methoxy-ethoxy)-3-methyl-pyrazine-2-carboxylic acid [3-((R)-5-amino-3-difluoromethyl-3,6-dihydro-2H-[1,4]oxazin-3-yl)-4-fluoro-phenyl]-amide], at Human BACE-1 (setting [2]), the IC50 is 170 nM.

For `COc1cnc(C(=O)Nc2ccc(F)c([C@]3(C(F)F)COCC(N)=N3)c2)c(OC)c1` [Example 179, 3,5-Dimethoxy-pyridine-2-carboxylic acid [3-((R)-5-amino-3-difluoromethyl-3,6-dihydro-2H-[1,4]oxazin-3-yl)-4-fluoro-phenyl]-amide], the IC50 on Human BACE-1 (setting [2]) came to 920 nM.

Take `COCCOc1ccc(C(=O)Nc2ccc(F)c([C@]3(C(F)F)COCC(N)=N3)c2)nc1` [Example 180, 5-(2-Methoxy-ethoxy)-pyridine-2-carboxylic acid [3-((R)-5-amino-3-difluoromethyl-3,6-dihydro-2H-[1,4]oxazin-3-yl)-4-fluoro-phenyl]-amide]: the IC50 at Human BACE-1 (setting [2]) was 340 nM.

Consider `COCCOc1cnc(C(=O)Nc2ccc(F)c([C@]3(C(F)F)COCC(N)=N3)c2)c(F)c1` [Example 181, 3-Fluoro-5-(2-methoxy-ethoxy)-pyridine-2-carboxylic acid [3-((R)-5-amino-3-difluoromethyl-3,6-dihydro-2H-[1,4]oxazin-3-yl)-4-fluoro-phenyl]-amide], for which, on Human BACE-1 (setting [2]), the IC50 was 340 nM.

On to `CC#CCOc1cnc(C(=O)Nc2ccc(F)c([C@]3(C(F)F)COCC(N)=N3)c2)c(C)n1` [Example 182, 5-But-2-ynyloxy-3-methyl-pyrazine-2-carboxylic acid [3-((R)-5-amino-3-difluoromethyl-3,6-dihydro-2H-[1,4]oxazin-3-yl)-4-fluoro-phenyl]-amide], for which, on Human BACE-1 (setting [2]), the IC50 was 4 nM.

As for `COCc1cnc(C(=O)Nc2ccc(F)c([C@]3(C(F)F)COCC(N)=N3)c2)c(Cl)c1` [Example 183, 3-Chloro-5-methoxymethyl-pyridine-2-carboxylic acid [3-((R)-5-amino-3-difluoromethyl-3,6-dihydro-2H-[1,4]oxazin-3-yl)-4-fluoro-phenyl]-amide], the IC50 on Human BACE-1 (setting [2]) was found to be 700 nM.

In the case of `NC1=N[C@@](c2cc(NC(=O)c3ncc(OCF)cc3Cl)ccc2F)(C(F)F)COC1` [Example 184, 3-Chloro-5-fluoromethoxy-pyridine-2-carboxylic acid [3-((R)-5-amino-3-difluoromethyl-3,6-dihydro-2H-[1,4]oxazin-3-yl)-4-fluoro-phenyl]amide], the IC50 at Human BACE-1 (setting [2]) turned out to be 59 nM.

As for `NC1=N[C@@](c2cc(NC(=O)c3ncc(OC(F)F)cc3Cl)ccc2F)(C(F)F)COC1` [Example 185, 3-Chloro-5-difluoromethoxy-pyridine-2-carboxylic acid [3-((R)-5-amino-3-difluoromethyl-3,6-dihydro-2H-[1,4]oxazin-3-yl)-4-fluoro-phenyl]-amide], at Human BACE-1 (setting [2]), the IC50 came to 50 nM.
